Data reported in patent US20260285888A1, “HETEROCYCLIC COMPOUND AND USE THEREOF” (OTSUKA PHARMACEUTICAL CO., LTD., priority 2023, published 2026).

What was measured:
[1] = in vitro; type: cell-based, human; settings: human, differentiated hl-60 cells, 300 μmol/L, about 24 hours, PMA-differentiated HL-60 cells, LDH; no-treatment 0%, cell lysis buffer 100%; read-out: cytotoxicity (%) Evaluation compound results
Description: An HL-60 cell line (human acute promyelocytic leukemia cells) was successively cultured in RPMI 1640 containing 20% fetal bovine serum (FBS) at 37° C. in 95% atmosphere/5% CO2. Before evaluation, the cells were pre-cultured for about 72 hours in the presence of 10 nM phorbol 12-myristate 13-acetate (PMA) to induce macrophage-like differentiation.
Evaluation compounds were dissolved in DMSO to obtain 30 mmol/L solutions (or suspensions). Each DMSO solution was diluted 100-fold with RPMI 1640 containing 2% FBS (final concentration of the compound: 300 μmol/L) to obtain a treatment solution. The culture supernatant of the differentiated HL-60 cells was removed, and each treatment solution was added and cultured for about 24 hours, followed by cytotoxicity evaluation.
The activity of lactate dehydrogenase (LDH) was measured in the treatment solutions exposed to the cells for about 24 hours by using a commercial kit (Cytotoxicity LDH Assay Kit-WST, Dojindo Laboratories) and a plate reader (Tecan Infinite M1000). The obtained measurement values were used to calculate cytotoxicity (%) as comparison values for each evaluation compound-treated group, with the no-treatment group taken as 0% and the cell lysis buffer-treated group taken as 100%. The test was conducted in triplicate in three wells each, and the average values were used as adopted values.

[2] = Study for confirmation of conversion to brexpiprazole in a buffer (stability of the evaluation compounds); type: physicochemical; settings: in buffer, average of duplicate; for Concentration of brexpiprazole formed: 60-minute reaction sample; for Concentration of evaluation compound decreased: decrease in 60-minute vs 0-minute reaction sample
Description: The conversion from the evaluation compounds to brexpiprazole in a buffer (i.e., the stability of the evaluation compounds) was evaluated.
The Example 1 compound was dissolved in acetonitrile/water (1:1, v/v) to 10 mmol/L and further diluted with acetonitrile/water (1:1, v/v) to 100 μmol/L for use.
The other Example compounds and the Reference Example 5 compound to Reference Example 7 compound were each dissolved in DMSO to 10 mmol/L and further diluted with acetonitrile to 100 μmol/L for use, except for the following compounds.
The compounds of Examples 52, 95, 96, 117, and 130 (EX 52, EX 95, EX 96, EX 117, and EX 130) were dissolved in acetonitrile/water (8:2, v/v) to 10 mmol/L and further diluted with acetonitrile to 100 μmol/L for use.
The compound of Example 97 (EX 97) was dissolved in acetonitrile/water (8:2, v/v) to 10 mmol/L and further diluted with acetonitrile/water (8:2, v/v) to 100 μmol/L for use.
The compounds of Examples 15 and 116 (EX 15 and EX 116) were dissolved in DMSO to 1 mmol/L and further diluted with acetonitrile to 100 μmol/L for use.
The reaction was conducted by preparing each reaction solution such that the final concentration of each component was as follows. The test was conducted in duplicate.
For the compounds of Examples 1 to 8, 10 to 19, 26 to 27, 37, 50, 87 to 89, 91, 116, 121, 123, 150, and 151 (EX 1 to EX 8, EX 10 to EX 19, EX 26 to EX 27, EX 37, EX 50, EX 87 to EX 89, EX 91, EX 116, EX 121, EX 123, EX 150, and EX 151), and the compounds of Reference Examples 5 to 7 (REX 5 to REX 7), the reaction solution without the evaluation compound (198 μl) was pre-incubated at 37° C. for 3 minutes, and then each of the evaluation compound solutions (2 μl) was added and stirred; thereafter, the reaction was started at 37° C. At 0 minutes or 60 minutes after the start of the reaction, the reaction was stopped by adding and stirring a reaction stop solution (1000 μl) composed of acetonitrile/isopropanol (4:1, v/v) containing internal standard substances. However, the 0-minute reaction sample (198 μl) was prepared by adding the evaluation compound (2 μl) after adding the reaction stop solution (1000 μl). The samples after stopping the reaction were used as the measurement samples. Calibration curve samples with the same composition were prepared (final concentrations of the evaluation compounds and brexpiprazole: 0.01, 0.1, and 1 μmol/L, with the proviso that for the evaluation compounds only, the 0-minute reaction samples were also used as calibration curve samples for 1 μmol/L).
For the compounds of Examples 24 to 25, 28 to 29, 32 to 36, 40 to 49, 51 to 60, 62 to 64, 66 to 77, 80 to 86, 90, 92 to 111, 113, 115, 117 to 120, 122, 124 to 130, 132 to 147, and 152 to 160 (EX 24 to EX 25, EX 28 to EX 29, EX 32 to EX 36, EX 40 to EX 49, EX 51 to EX 60, EX 62 to EX 64, EX 66 to EX 77, EX 80 to EX 86, EX 90, EX 92 to EX 111, EX 113, EX 115, EX 117 to EX 120, EX 122, EX 124 to EX 130, EX 132 to EX 147, and EX 152 to EX 160), the reaction solution without the evaluation compound (148.5 μl) was pre-incubated at 37° C. for 3 minutes, and then each of the evaluation compound solutions (1.5 μl) was added and stirred; thereafter, the reaction was started at 37° C. At 0 minutes or 60 minutes after the start of the reaction, the reaction was stopped by adding and stirring a reaction stop solution (600 μl) composed of acetonitrile/isopropanol (4:1, v/v) containing internal standard substances. However, the 0-minute reaction sample (148.5 μl) was prepared by adding the evaluation compound (1.5 μl) after adding the reaction stop solution (600 μl). The samples after stopping the reaction were used as the measurement samples. Calibration curve samples with the same composition were prepared (final concentrations of the evaluation compounds and brexpiprazole: 0.01, 0.1, and 1 μmol/L, with the proviso that for the evaluation compounds only, the 0-minute reaction samples were also used as calibration curve samples for 1 μmol/L). […]

| Concentration of brexpiprazole formed [2] [nM] | Concentration of evaluation compound decreased [2] [nM] | SMILES | cytotoxicity at 24 h, 300 µM [1] [%] |
| --- | --- | --- | --- |
| 0 | 110 | COCCOC(=O)CCCCCCCCCCC(=O)OCOP(=O)([O-])OC[N+]1(CCCCOc2ccc3ccc(=O)[nH]c3c2)CCN(c2cccc3sccc23)CC1 [EX 77, (4-(benzo[b]thiophen-4-yl)-1-(4-((2-oxo-1,2-dihydroquinolin-7-yl)oxy)butyl)piperazin-1-ium-1-yl)methyl (((12-(2-methoxyethoxy)-12-oxododecanoyl)oxy)methyl) phosphate] | 6 |
| 0 | -10 | CCNP(=O)([O-])OC[N+]1(CCCCOc2ccc3ccc(=O)[nH]c3c2)CCN(c2cccc3sccc23)CC1 [EX 151, (4-(benzo[b]thiophen-4-yl)-1-(4-((2-oxo-1,2-dihydroquinolin-7-yl)oxy)butyl)piperazin-1-ium-1-yl)methyl ethylphosphoramidate] | -6 |
| 0 | 120 | COCCCOC(=O)OCOP(=O)([O-])OC[N+]1(CCCCOc2ccc3ccc(=O)[nH]c3c2)CCN(c2cccc3sccc23)CC1 [EX 139, (4-(benzo[b]thiophen-4-yl)-1-(4-((2-oxo-1,2-dihydroquinolin-7-yl)oxy)butyl)piperazin-1-ium-1-yl)methyl ((((3-methoxypropoxy)carbonyl)oxy)methyl) phosphate] | -4 |
| – | – | O=C(OCCCO)OCOP(=O)([O-])OC[N+]1(CCCCOc2ccc3ccc(=O)[nH]c3c2)CCN(c2cccc3sccc23)CC1 [EX 131, (4-(benzo[b]thiophen-4-yl)-1-(4-((2-oxo-1,2-dihydroquinolin-7-yl)oxy)butyl)piperazin-1-ium-1-yl)methyl ((((3-hydroxypropoxy)carbonyl)oxy)methyl) phosphate] | 10 |
| 0 | 50 | CN1CCN(CCOP(=O)([O-])OC[N+]2(CCCCOc3ccc4ccc(=O)[nH]c4c3)CCN(c3cccc4sccc34)CC2)CC1 [EX 117, (4-(benzo[b]thiophen-4-yl)-1-(4-((2-oxo-1,2-dihydroquinolin-7-yl)oxy)butyl)piperazin-1-ium-1-yl)methyl (2-(4-methylpiperazin-1-yl)ethyl) phosphate] | -7 |
| 0 | 0 | O=C(O)CCCC(=O)OCOP(=O)([O-])OC[N+]1(CCCCOc2ccc3ccc(=O)[nH]c3c2)CCN(c2cccc3sccc23)CC1 [EX 70, (4-(benzo[b]thiophen-4-yl)-1-(4-((2-oxo-1.2-dihydroquinolin-7-yl)oxy)butyl)piperazin-1-ium-1-yl)methyl (((4-carboxybutanoyl)oxy)methyl) phosphate] | -7 |
| – | – | CC(C)=CCC/C(C)=C\COP(=O)([O-])OC[N+]1(CCCCOc2ccc3ccc(=O)[nH]c3c2)CCN(c2cccc3sccc23)CC1 [EX 38, (Z)-(4-(benzo[b]thiophen-4-yl)-1-(4-((2-oxo-1,2-dihydroquinolin-7-yl)oxy)butyl)piperazin-1-ium-1-yl)methyl (3,7-dimethylocta-2,6-dien-1-yl) phosphate] | 0 |
| – | – | O=C(OC[N+]1(CCCCOc2ccc3ccc(=O)[nH]c3c2)CCN(c2cccc3sccc23)CC1)N1CCCCC1 [REX 4, 4-(benzo[b]thiophen-4-yl)-1-(4-((2-oxo-1,2-dihydroquinolin-7-yl)oxy)butyl)-1-(((piperidine-1-carbonyl)oxy)methyl)piperazin-1-ium iodide, reference compound] | 83 |
| – | – | COCC(=O)OCOP(=O)([O-])OC[N+]1(CCCCOc2ccc3ccc(=O)[nH]c3c2)CCN(c2cccc3sccc23)CC1 [EX 30, (4-(benzo[b]thiophen-4-yl)-1-(4-((2-oxo-1,2-dihydroquinolin-7-yl)oxy)butyl)piperazin-1-ium-1-yl)methyl ((2-methoxyacetoxy)methyl) phosphate] | 14 |
| – | – | CCOC(=O)CCCCCOP(=O)([O-])OC[N+]1(CCCCOc2ccc3ccc(=O)[nH]c3c2)CCN(c2cccc3sccc23)CC1 [EX 61, (4-(benzo[b]thiophen-4-yl)-1-(4-((2-oxo-1,2-dihydroquinolin-7-yl)oxy)butyl)piperazin-1-ium-1-yl)methyl (6-ethoxy-6-oxohexyl) phosphate] | 5 |
| – | – | CC(C)=CCC/C(C)=C/COP(=O)([O-])OC[N+]1(CCCCOc2ccc3ccc(=O)[nH]c3c2)CCN(c2cccc3sccc23)CC1 [EX 39, (E)-(4-(benzo[b]thiophen-4-yl)-1-(4-((2-oxo-1,2-dihydroquinolin-7-yl)oxy)butyl)piperazin-1-ium-1-yl)methyl (3,7-dimethylocta-2,6-dien-1-yl) phosphate] | 2 |
| – | – | CCC(=O)OP(=O)([O-])OC[N+]1(CCCCOc2ccc3ccc(=O)[nH]c3c2)CCN(c2cccc3sccc23)CC1 [EX 148, (4-(benzothiophen-4-yl)-1-(4-((2-oxo-1H-quinolin-7-yl)oxy)butyl)piperazin-1-ium-1-yl)methyl propanoyl phosphate] | -5 |
| – | – | CC(C)C(=O)OP(=O)([O-])OC[N+]1(CCCCOc2ccc3ccc(=O)[nH]c3c2)CCN(c2cccc3sccc23)CC1 [EX 149, (4-(benzothiophen-4-yl)-1-(4-((2-oxo-1H-quinolin-7-yl)oxy)butyl)piperazin-1-ium-1-yl)methyl 2-methylpropanoyl phosphate] | -3 |
| – | – | O=C(O)CCOP(=O)([O-])OC[N+]1(CCCCOc2ccc3ccc(=O)[nH]c3c2)CCN(c2cccc3sccc23)CC1 [EX 112, (4-(benzo[b]thiophen-4-yl)-1-(4-((2-oxo-1,2-dihydroquinolin-7-yl)oxy)butyl)piperazin-1-ium-1-yl)methyl (2-carboxyethyl) phosphate] | -7 |
